Patent US8048825B2, “Haloalkylsulfonanilide derivatives or salt thereof, herbicide comprising the derivatives as active ingredient, and use of the herbicide” (Nihon Nohyaku Co., Ltd., priority 2006, dated 2011)

Key:
Type in all cases: in vivo
Scirpus juncoides [1] = experiment: Herbicidal efficacy on paddy field weeds of pre-emergence stage (Pre), Test Example 1; settings: 1000 g/ha as active ingredient, examined after 21 days
Method: (§1) 75 cm^2 plastic pots were filled with the soil (clay loam). Seeds of Scirpus juncoides, a paddy weed, were planted, and they were covered with 75 cm^3 of soil mixed with seeds of Lindernia procumbens and then filled with water depth of 5 cm. Next day, predetermined effective dosage (1000 g/ha as an active ingredient) of formulations comprising a compound of the present invention as an active ingredient which were prepared following Formulation Examples 1 to 4 was diluted with water and applied dropwise to the surface of the water. Then, they were brought up in a greenhouse and the herbicidal effect was examined after 21 days from the treatment by comparing with the result of an untreated group according to the following criteria. In the table, “-” means that the test was not performed.
(§2) Criteria for herbicidal efficacy (growth inhibiting degree) and phytotoxicity. • 5 . . . 100% herbicidal effect, phytotoxicity. • 4 . . . 90%-99% herbicidal effect, phytotoxicity. • 3 . . . 70%-89% herbicidal effect, phytotoxicity. • 2 . . . 40%-69% herbicidal effect, phytotoxicity. • 1 . . . 1%-39% herbicidal effect, phytotoxicity. • 0 . . . 0% herbicidal effect, phytotoxicity.

Lindernia procumbens [2] = experiment: as above; settings: 1000 g/ha as active ingredient, examined after 21 days
Method: as §1, §2

Scirpus juncoides [3] = experiment: Herbicidal effect on paddy field weeds of post-emergence stage (Post), Test Example 2; settings: one-leaf stage, 1000 g/ha as active ingredient, examined after 21 days
Description: as §2
(§3) 75 cm^2 plastic pots were filled with the soil (clay loam). Seeds of Scirpus juncoides and Echinochloa crus-galli, paddy weeds, were planted, and they were covered with 75 cm^3 of soil mixed with seeds of Lindernia procumbens and then filled with water depth of 5 cm and they were brought up in a greenhouse. When the test plants were at one-leaf stage, predetermined effective dosage (1000 g/ha as an active ingredient) of formulations comprising a compound of the present invention as an active ingredient was applied to the pot water. Then, they were brought up in a greenhouse and the herbicidal efficacy was examined after 21 days from the treatment by comparing with the result of an untreated group according to the criteria of Test Example 1. In the table, “-” means that the test was not performed.

Lindernia procumbens [4] = experiment: as above; settings: one-leaf stage, 1000 g/ha as active ingredient, examined after 21 days
Description: as §2, §3

Structure (SMILES)	Scirpus juncoides pre (herbicidal effect) (Scirpus juncoides [1])	Lindernia procumbens pre (herbicidal effect) (Lindernia procumbens [2])	Scirpus juncoides post (herbicidal effect) (Scirpus juncoides [3])	Lindernia procumbens post (herbicidal effect) (Lindernia procumbens [4])
CCCCOC(=O)N(c1ccccc1CN1CCC(CC)(C(F)(F)F)OC1=O)S(=O)(=O)C(F)(F)F (centres unmarked) [Compound 1-95]	5 (100% herbicidal effect, phytotoxicity)	5 (100% herbicidal effect, phytotoxicity)	4 (90%-99% herbicidal effect, phytotoxicity)	5 (100% herbicidal effect, phytotoxicity)
O=C1OC(c2ccc(Cl)cc2)(C2CC2)CCN1Cc1ccccc1NS(=O)(=O)C(F)(F)F (centres unmarked) [Compound 1-195]	4 (90%-99% herbicidal effect, phytotoxicity)	4 (90%-99% herbicidal effect, phytotoxicity)	4 (90%-99% herbicidal effect, phytotoxicity)	4 (90%-99% herbicidal effect, phytotoxicity)
CCOC(=O)N(c1ccccc1CN1CCC(c2ccccc2Cl)OC1=O)S(=O)(=O)C(F)(F)F (centres unmarked) [Compound 1-307]	4 (90%-99% herbicidal effect, phytotoxicity)	5 (100% herbicidal effect, phytotoxicity)	4 (90%-99% herbicidal effect, phytotoxicity)	5 (100% herbicidal effect, phytotoxicity)
O=C1OC(c2ccccc2)(c2ccccc2)CCN1Cc1ccccc1NS(=O)(=O)C(F)(F)F [Compound 1-217]	4 (90%-99% herbicidal effect, phytotoxicity)	4 (90%-99% herbicidal effect, phytotoxicity)	4 (90%-99% herbicidal effect, phytotoxicity)	4 (90%-99% herbicidal effect, phytotoxicity)
CC1(c2ccccc2C(F)(F)F)CCN(Cc2ccccc2NS(=O)(=O)C(F)(F)F)C(=O)O1 (centres unmarked) [Compound 1-393]	5 (100% herbicidal effect, phytotoxicity)	5 (100% herbicidal effect, phytotoxicity)	4 (90%-99% herbicidal effect, phytotoxicity)	5 (100% herbicidal effect, phytotoxicity)
CCOC(=O)N(c1ccccc1CN1CCC(c2ccccc2)(c2ccccc2)OC1=O)S(=O)(=O)C(F)(F)F [Compound 1-219]	4 (90%-99% herbicidal effect, phytotoxicity)	4 (90%-99% herbicidal effect, phytotoxicity)	4 (90%-99% herbicidal effect, phytotoxicity)	4 (90%-99% herbicidal effect, phytotoxicity)
CC(C)(C)COC(=O)N(c1ccccc1CN1CCC(C)(C2(C)CC2)OC1=O)S(=O)(=O)C(F)(F)F (centres unmarked) [Compound 1-377]	4 (90%-99% herbicidal effect, phytotoxicity)	5 (100% herbicidal effect, phytotoxicity)	4 (90%-99% herbicidal effect, phytotoxicity)	5 (100% herbicidal effect, phytotoxicity)
CC1(c2ccccc2Cl)CCN(Cc2ccccc2NS(=O)(=O)C(F)(F)F)C(=O)O1 (centres unmarked) [Compound 1-172]	4 (90%-99% herbicidal effect, phytotoxicity)	4 (90%-99% herbicidal effect, phytotoxicity)	4 (90%-99% herbicidal effect, phytotoxicity)	4 (90%-99% herbicidal effect, phytotoxicity)
COC(=O)N(c1ccccc1CN1CCC(C)(c2ccccc2F)OC1=O)S(=O)(=O)C(F)(F)F (racemic) [Compound 1-429]	4 (90%-99% herbicidal effect, phytotoxicity)	5 (100% herbicidal effect, phytotoxicity)	4 (90%-99% herbicidal effect, phytotoxicity)	5 (100% herbicidal effect, phytotoxicity)
CC(C)(C)COC(=O)N(c1ccccc1CN1CCC(C2CC2)(C2CC2)OC1=O)S(=O)(=O)C(F)(F)F [Compound 1-155]	4 (90%-99% herbicidal effect, phytotoxicity)	4 (90%-99% herbicidal effect, phytotoxicity)	4 (90%-99% herbicidal effect, phytotoxicity)	4 (90%-99% herbicidal effect, phytotoxicity)
CCC1(CC)CCN(Cc2ccccc2N(C(=O)OCC(C)(C)C)S(=O)(=O)C(F)(F)F)C(=O)O1 [Compound 1-108]	4 (90%-99% herbicidal effect, phytotoxicity)	4 (90%-99% herbicidal effect, phytotoxicity)	4 (90%-99% herbicidal effect, phytotoxicity)	4 (90%-99% herbicidal effect, phytotoxicity)
CCOC(=O)N(c1ccccc1CN1CCC(c2c(F)cccc2F)OC1=O)S(=O)(=O)C(F)(F)F (centres unmarked) [Compound 1-351]	4 (90%-99% herbicidal effect, phytotoxicity)	5 (100% herbicidal effect, phytotoxicity)	4 (90%-99% herbicidal effect, phytotoxicity)	5 (100% herbicidal effect, phytotoxicity)
CCC1(CC(C)C)CCN(Cc2ccccc2N(C(=O)OCC(C)(C)C)S(=O)(=O)C(F)(F)F)C(=O)O1 (racemic) [Compound 1-423]	4 (90%-99% herbicidal effect, phytotoxicity)	5 (100% herbicidal effect, phytotoxicity)	4 (90%-99% herbicidal effect, phytotoxicity)	5 (100% herbicidal effect, phytotoxicity)
CCC1(CC)CCN(Cc2ccccc2N(C(=O)OCC(C)C)S(=O)(=O)C(F)(F)F)C(=S)O1 [Compound 1-119]	4 (90%-99% herbicidal effect, phytotoxicity)	4 (90%-99% herbicidal effect, phytotoxicity)	4 (90%-99% herbicidal effect, phytotoxicity)	4 (90%-99% herbicidal effect, phytotoxicity)
O=C1OC(c2ccccc2)(C2CCC2)CCN1Cc1ccccc1NS(=O)(=O)C(F)(F)F (centres unmarked) [Compound 1-206]	4 (90%-99% herbicidal effect, phytotoxicity)	4 (90%-99% herbicidal effect, phytotoxicity)	4 (90%-99% herbicidal effect, phytotoxicity)	4 (90%-99% herbicidal effect, phytotoxicity)
Cc1ccccc1C1(C)CCN(Cc2ccccc2NS(=O)(=O)C(F)(F)F)C(=O)O1 (centres unmarked) [Compound 1-404]	4 (90%-99% herbicidal effect, phytotoxicity)	5 (100% herbicidal effect, phytotoxicity)	4 (90%-99% herbicidal effect, phytotoxicity)	5 (100% herbicidal effect, phytotoxicity)
CCCCC(CC)COC(=O)N(c1ccccc1CN1CCC2(CCCC2)OC1=O)S(=O)(=O)C(F)(F)F (centres unmarked) [Compound 1-144]	4 (90%-99% herbicidal effect, phytotoxicity)	4 (90%-99% herbicidal effect, phytotoxicity)	4 (90%-99% herbicidal effect, phytotoxicity)	4 (90%-99% herbicidal effect, phytotoxicity)
CCC1(CC(C)C)CCN(Cc2ccccc2N(C(=O)OCC(C)C)S(=O)(=O)C(F)(F)F)C(=O)O1 (centres unmarked) [Compound 1-422]	5 (100% herbicidal effect, phytotoxicity)	5 (100% herbicidal effect, phytotoxicity)	4 (90%-99% herbicidal effect, phytotoxicity)	5 (100% herbicidal effect, phytotoxicity)
CCCOC(=O)N(c1ccccc1CN1CCC(CC)(C(F)(F)F)OC1=O)S(=O)(=O)C(F)(F)F (centres unmarked) [Compound 1-94]	5 (100% herbicidal effect, phytotoxicity)	5 (100% herbicidal effect, phytotoxicity)	4 (90%-99% herbicidal effect, phytotoxicity)	5 (100% herbicidal effect, phytotoxicity)
CCOC(=O)N(c1ccccc1CN1CCC(C)(c2ccccc2Cl)OC1=O)S(=O)(=O)C(F)(F)F (centres unmarked) [Compound 1-174]	4 (90%-99% herbicidal effect, phytotoxicity)	4 (90%-99% herbicidal effect, phytotoxicity)	4 (90%-99% herbicidal effect, phytotoxicity)	4 (90%-99% herbicidal effect, phytotoxicity)
